Consider seven compounds from US10499640B2, “Herbicidal compounds” (SYNGENTA PARTICIPATIONS AG, priority 2014, dated 2019).

The structures appear in SMILES notation.

What all share (format): in vivo
Assay [1] deals with Zea mays (ZEAMX). Nature of the assay: Pre-emergence herbicidal activity, glasshouse pot test. The settings on record: Rate 1000 g/Ha; sprayed one day after sowing; evaluated after 13 days; scale 0-5. The method, then: (§1) Seeds of a variety of test species were sown in standard soil in pots. After cultivation for one day (pre-emergence) under controlled conditions in a glasshouse (at 24/16° C., day/night; 14 hours light; 65% humidity), the plants were sprayed with an aqueous spray solution derived from the formulation of the technical active ingredient in acetone/water (50:50) solution containing 0.5% Tween 20 (polyoxyethelyene sorbitan monolaurate, CAS RN 9005-64-5). The test plants were then grown in a glasshouse under controlled conditions (at 24/16° C., day/night; 14 hours light; 65% humidity) and watered twice daily. After 13 days, the test was evaluated (5=total damage to plant; 0=no damage to plant).

Assay [2] concerns Echinochloa crus-galli (ECHCG). Nature of the assay: Post-emergence herbicidal activity, glasshouse pot test. Details: key: 5=total damage to plant; 0=no damage to plant. The settings on record: Rate 1000 g/Ha; sprayed after 8 days cultivation; evaluated after 13 days; scale 0-5. As for the experimental part:
(§2) Seeds of a variety of test species were sown in standard soil in pots. After 8 days cultivation (post-emergence) under controlled conditions in a glasshouse (at 24/16° C., day/night; 14 hours light; 65% humidity), the plants were sprayed with an aqueous spray solution derived from the formulation of the technical active ingredient in acetone/water (50:50) solution containing 0.5% Tween 20 (polyoxyethelyene sorbitan monolaurate, CAS RN 9005-64-5). The test plants were then grown in a glasshouse under controlled conditions (at 24/16° C., day/night; 14 hours light; 65% humidity) and watered twice daily. After 13 days, the test was evaluated (5=total damage to plant; 0=no damage to plant).

Assay [3] has as its system Setaria faberi (SETFA). The description is as above. Details: key: 5=total damage to plant; 0=no damage to plant. To be noted: Rate 1000 g/Ha; sprayed after 8 days cultivation; evaluated after 13 days; scale 0-5. As for the experimental part: as §2
Assay [4] concerns Alopecurus myosuroides (ALOMY). The description is as above. Details: key: 5=total damage to plant; 0=no damage to plant. To be noted: Rate 1000 g/Ha; sprayed after 8 days cultivation; evaluated after 13 days; scale 0-5. The method, then:
as §2

Assay [5] has as its system Amaranthus retroflexus (AMARE). Described as above. Details: key: 5=total damage to plant; 0=no damage to plant. The settings on record: Rate 1000 g/Ha; sprayed after 8 days cultivation; evaluated after 13 days; scale 0-5. The method, then:
as §2

Assay [6] has as its system Abutilon theophrasti (ABUTH). The description is as above. Details: key: 5=total damage to plant; 0=no damage to plant. To be noted: Rate 1000 g/Ha; sprayed after 8 days cultivation; evaluated after 13 days; scale 0-5. As for the experimental part:
as §2

Assay [7] concerns Zea mays (ZEAMX). The description is as above. The settings on record: Rate 1000 g/Ha; sprayed after 8 days cultivation; evaluated after 13 days; scale 0-5. More on the design: key: 5=total damage to plant; 0=no damage to plant. As for the experimental part:
as §2

Assay [8] deals with Echinochloa crus-galli (ECHCG). Nature of the assay: Pre-emergence herbicidal activity, glasshouse pot test. More on the design: key: 5=total damage to plant; 0=no damage to plant. To be noted: Rate 1000 g/Ha; sprayed one day after sowing; evaluated after 13 days; scale 0-5. The method, then: as §1
Assay [9] relates to Setaria faberi (SETFA). Described as above. More on the design: key: 5=total damage to plant; 0=no damage to plant. The settings on record: Rate 1000 g/Ha; sprayed one day after sowing; evaluated after 13 days; scale 0-5. As for the experimental part: as §1
For assay [10], the system named is Alopecurus myosuroides (ALOMY). The assay is described as above. Details: key: 5=total damage to plant; 0=no damage to plant. To be noted: Rate 1000 g/Ha; sprayed one day after sowing; evaluated after 13 days; scale 0-5. The method, then:
as §1

For assay [11], the system named is Amaranthus retroflexus (AMARE). Described as above. More on the design: key: 5=total damage to plant; 0=no damage to plant. The settings on record: Rate 1000 g/Ha; sprayed one day after sowing; evaluated after 13 days; scale 0-5. As for the experimental part:
as §1

Assay [12] has as its system Abutilon theophrasti (ABUTH). The assay is described as above. More on the design: key: 5=total damage to plant; 0=no damage to plant. To be noted: Rate 1000 g/Ha; sprayed one day after sowing; evaluated after 13 days; scale 0-5. The method, then:
as §1

As to `CON1C(=O)N(c2cc(C(C)(C)F)on2)C(O)C1C` (stereo not drawn) [Compound A1, 1-[5-(1-fluoro-1-methyl-ethyl)isoxazol-3-yl]-5-hydroxy-3-methoxy-4-methyl-imidazolidin-2-one], the “ZEAMX damage score, application pre-emergence” value in assay [1] was determined as 2. Besides, the “ECHCG damage score, application post-emergence” value in assay [2] is recorded as 5. Also, the “SETFA damage score, application post-emergence” value in [3] is reported as 5. Besides, the “ALOMY damage score, application post-emergence” value in [4] is listed as 5. Besides, the “AMARE damage score, application post-emergence” value in assay [5] was determined as 5. In addition, the “ABUTH damage score, application post-emergence” value in assay [6] stood at 5. In addition, in assay [7], the “ZEAMX damage score, application post-emergence” value was found to be 5. For the same compound, in assay [8], the “ECHCG damage score, application pre-emergence” value was found to be 4. The “SETFA damage score, application pre-emergence” value in [9] worked out at 4. For the same compound, in assay [10], the “ALOMY damage score, application pre-emergence” value turned out to be 4. Besides, the “AMARE damage score, application pre-emergence” value in assay [11] came out at 5. Further, the “ABUTH damage score, application pre-emergence” value in assay [12] came to 5.

For the compound `CN1CC(O)N(c2cc(C(C)(C)C#N)on2)C1=O` (stereo not drawn) [Compound A4], the “ZEAMX damage score, application pre-emergence” value in assay [1] is given as 4. Besides, the “ECHCG damage score, application post-emergence” value in [2] turned out to be 5. Further, in [3], the “SETFA damage score, application post-emergence” value was 5. Besides, in [4], the “ALOMY damage score, application post-emergence” value worked out at 5. For the same compound, in [5], the “AMARE damage score, application post-emergence” value is reported as 5. In assay [6], the “ABUTH damage score, application post-emergence” value came to 5. The “ZEAMX damage score, application post-emergence” value in [7] stood at 5. Besides, the “ECHCG damage score, application pre-emergence” value in [8] was 5. Moreover, the “SETFA damage score, application pre-emergence” value in assay [9] was 5. Moreover, the “ALOMY damage score, application pre-emergence” value in assay [10] is listed as 4. Besides, in [11], the “AMARE damage score, application pre-emergence” value was determined as 5. Besides, in assay [12], the “ABUTH damage score, application pre-emergence” value was 5.

Take `CC1C(O)N(c2cc(C(C)(C)C#N)on2)C(=O)N1C` (stereo not drawn) [Compound A5]: the “ZEAMX damage score, application pre-emergence” value in assay [1] stood at 3. Further, in assay [2], the “ECHCG damage score, application post-emergence” value came out at 5. Also, the “SETFA damage score, application post-emergence” value in assay [3] is on record as 5. Further, the “ALOMY damage score, application post-emergence” value in [4] is reported as 5. The “AMARE damage score, application post-emergence” value in assay [5] amounted to 5. Also, the “ABUTH damage score, application post-emergence” value in assay [6] was 5. In addition, in assay [7], the “ZEAMX damage score, application post-emergence” value is 5. Moreover, the “ECHCG damage score, application pre-emergence” value in [8] is listed as 5. The “SETFA damage score, application pre-emergence” value in assay [9] is listed as 5. Moreover, in assay [10], the “ALOMY damage score, application pre-emergence” value is listed as 4. For the same compound, in assay [11], the “AMARE damage score, application pre-emergence” value came out at 5. The “ABUTH damage score, application pre-emergence” value in [12] turned out to be 5.

`CC(C)(C)c1cc(N2C(=O)N3CCCCC3C2O)no1` (stereo not drawn) [Compound A26]: the “ZEAMX damage score, application pre-emergence” value in assay [1] was 3. The “ECHCG damage score, application post-emergence” value in assay [2] is on record as 5. In addition, in [3], the “SETFA damage score, application post-emergence” value turned out to be 5. In assay [4], the “ALOMY damage score, application post-emergence” value is 5. Further, the “AMARE damage score, application post-emergence” value in assay [5] turned out to be 5. Besides, the “ABUTH damage score, application post-emergence” value in [6] is given as 5. In assay [7], the “ZEAMX damage score, application post-emergence” value is reported as 5. For the same compound, in assay [8], the “ECHCG damage score, application pre-emergence” value is reported as 4. Further, the “SETFA damage score, application pre-emergence” value in assay [9] amounted to 4. For the same compound, in [10], the “ALOMY damage score, application pre-emergence” value is 4. The “AMARE damage score, application pre-emergence” value in assay [11] came out at 5. Also, the “ABUTH damage score, application pre-emergence” value in assay [12] was determined as 5.

`CN1CC(O)N(c2cc(C(C)(C)F)on2)C1=O` (stereo not drawn) [Compound A3]: the “ZEAMX damage score, application pre-emergence” value in [1] was determined as 2. In addition, the “ECHCG damage score, application post-emergence” value in [2] is reported as 5. Also, the “SETFA damage score, application post-emergence” value in [3] came out at 5. The “ALOMY damage score, application post-emergence” value in [4] is given as 5. The “AMARE damage score, application post-emergence” value in [5] came out at 5. The “ABUTH damage score, application post-emergence” value in [6] is reported as 5. Further, the “ZEAMX damage score, application post-emergence” value in assay [7] is 5. The “ECHCG damage score, application pre-emergence” value in [8] came out at 5. For the same compound, the “SETFA damage score, application pre-emergence” value in assay [9] turned out to be 4. Further, in assay [10], the “ALOMY damage score, application pre-emergence” value was 4. Besides, in [11], the “AMARE damage score, application pre-emergence” value is 5. Moreover, the “ABUTH damage score, application pre-emergence” value in [12] came to 5.

As for `CC(C)(C#N)c1cc(N2C(=O)NCC2O)no1` (stereo not drawn) [Compound A8], the “ZEAMX damage score, application pre-emergence” value in assay [1] stood at 1. Further, the “ECHCG damage score, application post-emergence” value in assay [2] was found to be 3. For the same compound, the “SETFA damage score, application post-emergence” value in assay [3] is listed as 3. Also, in [4], the “ALOMY damage score, application post-emergence” value stood at 2. Moreover, the “AMARE damage score, application post-emergence” value in assay [5] amounted to 4. In addition, in [6], the “ABUTH damage score, application post-emergence” value is recorded as 5. For the same compound, in assay [7], the “ZEAMX damage score, application post-emergence” value amounted to 1. In addition, in assay [8], the “ECHCG damage score, application pre-emergence” value is recorded as 1. Further, in assay [9], the “SETFA damage score, application pre-emergence” value turned out to be 1. Besides, in [10], the “ALOMY damage score, application pre-emergence” value was 0. In addition, in assay [11], the “AMARE damage score, application pre-emergence” value was 5. For the same compound, the “ABUTH damage score, application pre-emergence” value in assay [12] was 5.

As to `CC1NC(=O)N(c2cc(C(C)(C)C#N)on2)C1O` (stereo not drawn) [Compound A7], in [1], the “ZEAMX damage score, application pre-emergence” value stood at 2. The “ECHCG damage score, application post-emergence” value in [2] was 4. In addition, in [3], the “SETFA damage score, application post-emergence” value is listed as 4. The “ALOMY damage score, application post-emergence” value in assay [4] is 4. In addition, the “AMARE damage score, application post-emergence” value in assay [5] is given as 5. Besides, the “ABUTH damage score, application post-emergence” value in assay [6] is given as 5. Besides, the “ZEAMX damage score, application post-emergence” value in assay [7] amounted to 3. In [8], the “ECHCG damage score, application pre-emergence” value is 4. For the same compound, the “SETFA damage score, application pre-emergence” value in [9] worked out at 4. Further, the “ALOMY damage score, application pre-emergence” value in assay [10] was 4. The “AMARE damage score, application pre-emergence” value in assay [11] turned out to be 5. Further, the “ABUTH damage score, application pre-emergence” value in [12] amounted to 5.
